According to PubChem BioAssay AID1549 (Sanford-Burnham Center for Chemical Genomics, 2009):
Active and inactive are the calls of the source. No rule for the calls is given here.

What follows are molecules tested against Influenza A virus M2 proton channel (A/TW/4845/1999 H1N1) (assay: NMR binding screen, influenza A virus M2 proton channel, Kd (AID 1549)). Settings: M2 protein.
For `Cc1sc2nc[nH]c(=S)c2c1C`, the Kd was > 4 mM (inactive).
In the case of `Cc1c(F)cccc1NS(=O)(=O)c1ccccc1C#N`, the Kd is reported as > 4 mM (inactive).
For `NCC(O)c1ccc(O)cc1` (stereo unspecified), the Kd was > 4 mM (inactive).
In the case of `CCOC(=O)c1csc(N)n1`, the Kd is reported as > 4 mM (inactive).
`Cc1ccc(-c2nnn(CC(=O)O)n2)cc1` was tested, and the Kd was > 4 mM (inactive).
`CCS(=O)(=O)N1CCN(c2ccccc2F)CC1` was tested, and the Kd was > 4 mM (inactive).
With `NC(=O)c1cccc(Cl)n1` the Kd was > 4 mM (inactive).
`COc1ncnc(N)c1[N+](=O)[O-]` was tested, and the Kd was > 4 mM (inactive).
In the case of `COc1ccc(C(=O)NCC(=O)O)cc1`, the Kd is reported as > 4 mM (inactive).
With `CNC(=O)c1ccccc1N` the Kd was > 4 mM (inactive).
With `O=C1CC(c2c[nH]c3ccccc23)C(=O)N1` (stereo unspecified) the Kd was > 4 mM (inactive).
With `COC(=O)Cc1cccc(OC)c1` the Kd was > 4 mM (inactive).
With `CCCNC(=O)CSc1ncccc1C(=O)O` the Kd was > 4 mM (inactive).
With `COCC(=O)Nc1ccc(C)c(Cl)c1` the Kd was > 4 mM (inactive).
`Cc1ncoc1C(=O)Nc1ncc([N+](=O)[O-])s1` was tested, and the Kd was > 4 mM (inactive).
`O=C1COc2cc(O)ccc21` was tested, and the Kd was > 4 mM (inactive).
In the case of `OCc1ccc(N2CCOCC2)cc1`, the Kd is reported as > 4 mM (inactive).
With `CC(=O)c1cc(C(N)=O)c(=S)[nH]c1C` the Kd was > 4 mM (inactive).
`COc1ccc(-c2coc3cc(OC(C)=O)cc(OC(C)=O)c3c2=O)cc1` was tested, and the Kd was > 4 mM (inactive).
In the case of `CC(=O)OC(C)(C)[C@@H]1Cc2cc3ccc(=O)oc3cc2O1`, the Kd is reported as > 4 mM (inactive).
In the case of `CC1(C)SCC(C(=O)O)N1C=O` (stereo unspecified), the Kd is reported as > 4 mM (inactive).
For `Cc1cccc(C(C)C)c1NC(=O)c1cccnc1`, the Kd was > 4 mM (inactive).
In the case of `COc1cc(-c2coc3cc(OCc4ccccc4)c(OC)c(O)c3c2=O)cc(O)c1OC`, the Kd is reported as > 4 mM (inactive).
In the case of `CC[C@H](CCC(C)[C@H]1CCC2C3CCC4C[C@@H](O)CC[C@]4(C)C3CC[C@@]21C)C(C)C` (stereo partly specified), the Kd is reported as > 4 mM (inactive).
For `O=S(=O)(CCN1CCCC1)c1ccccc1`, the Kd was > 4 mM (inactive).
`CCOC(=O)c1ccc(F)cc1F` was tested, and the Kd was > 4 mM (inactive).
`CC(C)Oc1ccc(C2CC(=O)NNC2=O)cc1` (stereo unspecified) was tested, and the Kd was > 4 mM (inactive).
`Nc1cccc(-c2cnco2)c1` was tested, and the Kd was > 4 mM (inactive).
In the case of `NC(=O)C1(c2ccccc2)CCOCC1`, the Kd is reported as > 4 mM (inactive).
`COCCOc1nc2ccccc2nc1C` was tested, and the Kd was > 4 mM (inactive).
With `NCc1csc2ccccc12` the Kd was > 4 mM (inactive).
For `Cc1cc(C)nc(/N=C(/N)Nc2cccc(F)c2)n1`, the Kd was > 4 mM (inactive).
`CC(=O)Nc1cc(C(F)(F)F)ccc1N1CCOCC1` was tested, and the Kd was > 4 mM (inactive).
In the case of `OC1CC2CCC1C2` (stereo unspecified), the Kd is reported as > 4 mM (inactive).
`CC(=O)c1sc(NC(=O)C=C(C)C)nc1C` was tested, and the Kd was > 4 mM (inactive).
With `CC(C)/C(O)=C1/C(=O)O[C@@H](c2ccoc2)[C@]2(C)C(O)[C@@H](O)[C@@]34OC5(C)OC67CC(C)(C(O)[C@]6(O)[C@@H](O)[C@]3(O5)C12)[C@H](CC(=O)O)[C@]74C` (stereo partly specified) the Kd was > 4 mM (inactive).
In the case of `CC(O)c1nc2ccccc2[nH]1` (stereo unspecified), the Kd is reported as > 4 mM (inactive).
In the case of `CC(=O)N1CCC(NC2CCCCCC2)CC1`, the Kd is reported as > 4 mM (inactive).
In the case of `Cn1ccc(NC(=S)Nc2cccc([N+](=O)[O-])c2)n1`, the Kd is reported as > 4 mM (inactive).
In the case of `C=CCn1c(=S)[nH]c2ccc(Br)cc2c1=O`, the Kd is reported as > 4 mM (inactive).
`CC(=O)Nc1cccc(-c2nnc(-c3ccccc3)o2)c1` was tested, and the Kd was > 4 mM (inactive).
With `COc1ccccc1-c1n[nH]c(=O)o1` the Kd was > 4 mM (inactive).
In the case of `O=C(O)C1Cc2c([nH]c3ccccc23)CN1` (stereo unspecified), the Kd is reported as > 4 mM (inactive).
In the case of `O=C(Nc1ccc2c(c1)OCO2)c1cccc(F)c1`, the Kd is reported as > 4 mM (inactive).
With `Nc1nnc(SCc2ccccc2Cl)s1` the Kd was > 4 mM (inactive).
`Nc1ccccc1-c1nc2ccccc2[nH]1` was tested, and the Kd was > 4 mM (inactive).
`Cc1cc(=O)n2nc(-c3ccccc3)sc2n1` was tested, and the Kd was > 4 mM (inactive).
In the case of `CC(CO)NC(=O)C1C=C2c3cccc4[nH]cc(c34)C[C@H]2N(C)C1` (stereo partly specified), the Kd is reported as > 4 mM (inactive).
In the case of `CC(=O)Nc1cnn(-c2ccccc2)c(=O)c1Cl`, the Kd is reported as > 4 mM (inactive).
`CNCc1ccccc1` was tested, and the Kd was > 4 mM (inactive).
`Cc1ccc(-c2nnc3sc(-c4ccncc4)nn23)cc1` was tested, and the Kd was > 4 mM (inactive).
For `Cc1cc(C(=O)O)n[nH]1`, the Kd was > 4 mM (inactive).
In the case of `Cn1c(SCC(N)=O)nc2ccccc2c1=O`, the Kd is reported as > 4 mM (inactive).
`COc1ccc(C(=O)O)cc1OC` was tested, and the Kd was > 4 mM (inactive).
For `Cc1cc(C(=O)Nc2ccccn2)no1`, the Kd was > 4 mM (inactive).
For `OCC1CNc2ccccc2O1` (stereo unspecified), the Kd was > 4 mM (inactive).
`Cc1cccc(NC(=O)c2ccc(=O)[nH]n2)c1` was tested, and the Kd was > 4 mM (inactive).
With `CN(C)CC(O)C1CCOC(C)(C)C1` (stereo unspecified) the Kd was > 4 mM (inactive).
For `COC(=O)C(O)[C@@H]1C2(C)C(=O)[C@@H](CC3=C4CC(=O)O[C@@H](c5ccoc5)[C@]4(C)CCC32)[C@H](OC(C)=O)C1(C)C` (stereo partly specified), the Kd was > 4 mM (inactive).
`N#CCSc1nc2ccccc2c(=O)n1-c1ccccc1` was tested, and the Kd was > 4 mM (inactive).
With `Cc1noc(C)c1C(=O)Nc1cccnc1` the Kd was > 4 mM (inactive).
